One test has as its system human IgG. Put plainly: Affinity measurement to IgG by surface plasmon resonance (BIAcore T200). The test is classed as binding. The note with it: ligand immobilized onto sensor chip, HBS-EP buffer pH 7.4. The protocol: The affinity analysis was performed by the following method. First, a solution containing equal amounts of 0.4 M EDC (1-ethyl-3-(3-dimethylaminopropyl)-carbodiimide) and 0.1 M sulfo-NHS (sulfo-N-hydroxysuccinimide)) was injected at a flow rate of […] onto a CMS sensor chip set in BIAcore T200 (GE healthcare), thereby activating the sensor chip. Then, under the condition of pH 5.5 (10 mM Na acetate), the purified protein (sfGFP-C-1Opt1) described above was immobilized onto the sensor chip. For the measurement, HBS-EP buffer (10 mM HEPES, 150 mM NaCl, 0.005% Tween 20, 3 mM EDTA, pH 7.4) was used, and the binding reaction was monitored by injecting 6.25, 12.5, 25, 50, 100, 200, and 400 nM human IgG for 180 seconds at a flow rate of […]. For measuring the dissociation reaction, only the buffer was injected for 600 seconds. The analysis of interaction parameters was performed using BIA evalution T100 software.
As Comparative Example 1, a scaffold protein (sfGFP having a His tag; DNA sequence: SEQ ID NO: 40, amino acid sequence: SEQ ID NO: 41) to which an IgG-binding peptide was not fused was expressed and purified in the same manner as in Example 1, and affinity was measured.
Proteins including two IgG-binding peptides, each consisting of the amino acid sequences represented by SEQ ID NO: 45, SEQ ID NO: 47, and SEQ ID NO: 49 (sfGFP-N C-2Opt1GS12 (DNA sequence: SEQ ID NO: 44), sfGFP-173 C-2Opt1 GS12 (DNA sequence: SEQ ID NO: 46), and sfGFP-173 C-2Opt1GS13 (DNA sequence: SEQ ID NO: 48)) were expressed and purified by the same method as in Example 1, and the affinity was measured.
As Comparative Example 2, the affinity measurement of the peptide (amino acid sequence: SEQ ID NO: 18) prepared by chemical synthesis was carried out in the same manner as in Example 1.
In general terms: In SPR one partner is held on a chip, and binding of the other changes the refractive index at the surface.

In test [1] the test system is human serum-derived γ-globulin. Put plainly: Dynamic binding capacity (DBC) measurement on ligand-immobilized NHS-activated prepack column. The note with it: 1 mL column; 1 mg/mL γ-globulin at 1 mL/min; 10% breakthrough at 280 nm; equimolar ligand (7.3 mg protein or 0.5 mg peptide). On the procedure:
To examine whether the IgG-binding peptide divalent fusion protein can be used as an affinity ligand for human antibody purification, the protein prepared in Example 2 (sfGFP-173 C-2Opt1 GS12) was immobilized on an NHS-activated prepack column (GE Healthcare), and the adsorption performance was evaluated. The protein-immobilized column was prepared by the following method. A syringe was used to feed the solution.
5 mL of 1 mM hydrochloric acid was fed to a NHS-activated prepack column with a volume of 1 mL to remove the isopropanol solution in the column. Then, 1 mL of a coupling solution (200 mM carbonate buffer, 500 mM sodium chloride, pH 8.3) containing 7.3 mg of an IgG-binding peptide fusion protein was fed and immobilized at room temperature for 1 hour. The unreacted NHS ester was blocked by adding tris-hydroxymethylaminomethane. Finally, 5 mL of an adsorption solution (20 mM phosphate buffer, 150 mM sodium chloride, pH 7.4) was fed and used for DBC measurement.
The DBC measurement was performed using a liquid chromatography instrument AKTAexplore (GE Healthcare). […] The DBC was determined from the amount of the sample fed until the value of an absorbance at 280 nm excluding the non-adsorbed component reached 10% of the absorbance of the entire sample. […]

For the sequence “GPDCAYHRGELVWCTFH [Comparative Example 2, reference compound]”, in the test with human IgG (6.25-400 nM human IgG injected 180 s), the kon (as a rule, a measure of how fast the partners come together) stood at 330000 M⁻¹ s⁻¹. In addition, in the test with human IgG (buffer only injected 600 s for dissociation), the dissociation rate constant (koff) (as a rule, the rate constant with which the complex falls apart) was determined as 0.0048 s⁻¹. Besides, the equilibrium dissociation constant (Kd) (in general, the free concentration of one partner at which half of the binding sites on the other are occupied at equilibrium, for simple one-to-one binding) at human IgG (human IgG as analyte) worked out at 14 nM. The “DBC (dynamic binding capacity)” value in test [1] came out at 6.9 mg/mL-column.
